row,Structure (SMILES),melting point
1,CC(=O)O[C@@H]1OCC[C@@H]1NC(=O)[C@H](Cc1ccccc1)NC(=O)OCc1ccccc1,175 to 176 °C
2,COC(=O)c1c(O)cc(OCC(=O)c2ccc3c(c2)C(C)(C)CCC3(C)C)cc1O,162 to 163 °C
3,CC12CCC3c4ccc(C(=O)O)cc4CCC3C1CCC2C(=O)CC1CCCCC1 (stereo not given),239 to 241 °C
4,CCOc1c(OC)cc(C(=O)O)c(-c2c(C(=O)O)cc(OC)c3c2OCO3)c1OCC,262 to 263 °C
5,COC1(OC)CN(c2nc3c(cc2F)C=C(C(=O)O)CN3c2ccc(F)cc2F)CC1C (stereo not given),179 to 182 °C
6,COc1ccc(C=CC(=O)c2ccc(O)cc2)c(OC)c1,165 to 166 °C
7,O=C(Nc1cccc2c1C(=O)c1c-2n[nH]c1-c1ccc(C(=O)N2CCCC2)s1)NN1CCOCC1,> 300 °C
8,Cc1nc(C(O)COc2ccc(CC3SC(=O)NC3=O)cc2)c(C)o1 (stereo not given),223 to 224 °C
9,O=C(NCCn1ccnc1)c1cc(N2CC2)c([N+](=O)[O-])cc1[N+](=O)[O-],> 250 °C
10,O=C(O)Cc1ccc2c(c1)C(=O)c1cc3ccccc3cc1C2=O,> 220 °C
11,O=C(O)c1ccc(-c2nc(-c3ccc(Br)cc3)cs2)cc1,> 300 °C
12,Cc1ccc(C(C)(C)C)c(O)c1C(=O)Oc1ccccc1,71 to 72 °C
13,CCC(=O)Nc1c(C)c(C)c2c(c1C)C(c1ccc(C(C)C)cc1)CO2 (stereo not given),164 to 165 °C
14,CCn1c(=O)n(CCOCCOC)c(=O)c2c1ncn2Cc1ccccc1,140 °C
15,CN1c2ccccc2CC1COc1ccc(CC2SC(=O)NC2=O)cc1 (stereo not given),46.1 to 48.9 °C
16,C[C@H](c1ccccc1)n1c(=O)c2c(Cl)cc(Cl)cc2n(Cc2ccccc2)c1=O,93 to 97 °C
17,CC(=O)NCCC1CCc2ccc3nn(C)c(C)c3c21 (stereo not given),146 to 149 °C

row,Structure (SMILES),melting point
1,C=C(C)Cc1c(C)c(NC(C)=O)c(C)c(C)c1O,209 to 210 °C
2,O=C(Nc1cccc2c1C(=O)c1c-2n[nH]c1-c1ccc(C(=O)NC2CCCCC2)s1)NN1CCOCC1,264 to 267 °C
3,O=Cc1ccc2oc3ncccc3c(=O)c2c1,233 to 235 °C
4,CCOC(=O)COc1ccc2[nH]ccc2c1,74 to 77 °C
5,NC1=NS(=O)N=C1NCCCN1c2ccccc2CCc2ccccc21 (stereo not given),227 to 230 °C
6,CCCC(O)c1cc2c(cc1C)OCO2 (stereo not given),65.5 to 66.5 °C
7,Cc1ccc(Nc2nnc(Cc3ccncc3)c(C)c2C)cc1,68 to 70 °C
8,CNc1c(C)c(C)c(OC(C)=O)c(C)c1[N+](=O)[O-],143 to 146 °C
9,COC(=S)NCc1cn(-c2ccc(N3CCC(=O)CC3)c(F)c2)nn1,145 to 147 °C
10,CN1CC2CC1CN2C1=Nc2cc(Cl)ccc2Sc2ccccc21 (stereo not given),62 to 64 °C
11,Cn1ccc(=O)c(O)c1CC(O)c1cccnc1 (stereo not given),215 to 220 °C
12,O=C(O)c1cc(OCCCOc2ccc(O)cc2)cc(OCCCOc2ccc(O)cc2)c1,160 to 162 °C
13,CCCc1ccc2nc(F)c(S(N)(=O)=O)n2n1,148 °C
14,O=C(NC1CNCCn2c1nc(-c1ccncn1)cc2=O)c1ccccn1 (racemic),256 to 258 °C
15,COc1cc(N)c2nccc(C)c2c1OCCCCCCCCCc1ccccc1,32 to 32.5 °C
16,O=C1c2ccccc2C(=O)N1CCCOc1ccncc1,81 to 82 °C

# Now from value to compound:
row,melting point,Structure (SMILES)
1,103 to 104 °C,COc1cccc(-n2nc(Cl)cc2-c2ccc(S(C)(=O)=O)cc2)c1
2,220 to 223 °C,O=C(Nc1ccc(Br)cc1-c1noc(=O)[nH]1)c1cccc(S(=O)(=O)N2CCOCC2)c1
3,260 to 262 °C,O=c1c(O)c(-c2ncn(Cc3ccc(F)cc3)n2)oc2ccccc12
4,122 to 124 °C,N#CC1(c2ccc(C(F)(F)F)cc2)C2CC3CC(C2)CC1C3 (stereo not given)
5,298 to 300 °C,O=C1NC2(C(=O)O)CC3CC1C2C3 (stereo not given)
6,168 to 169 °C,COc1cccc(C(=O)C=CC2=CCC(OC)(N(C)C)C=C2)c1OC (stereo not given)
7,155 to 160 °C,COc1cc2c(cc1OC)Sc1ccccc1C(Cl)C2 (stereo not given)
8,160 to 162 °C,CCn1cc(C(=O)O)c(=O)cc1-c1ccc(N(C)C)c(C)c1
9,142 °C,COc1ccc(-n2nc(OC)cc2-c2ccc(OCCNC(N)=S)cc2)cc1
10,141 to 142 °C,CCOC(=O)C1CCc2c([nH]c3ccc(Cl)cc23)C1 (stereo not given)
11,192 to 194 °C,CN(C)S(=O)(=O)c1cccc2c1Sc1ccc(OCc3ccccc3)cc1N2
12,88 to 90 °C,Cc1ccc(C=COc2cccc3c2C(=O)c2ccccc2C3=O)cc1
13,107 to 108 °C,COC(=O)c1ccc(C(=O)CC(=O)c2ccccc2)cc1
14,197 to 198 °C,CCCCCCN1CCN(Cc2ccc(NC(N)=S)cc2)C(=O)C1=O
15,45 to 46 °C,CCCCC(CC)(CO)C(=O)O (stereo not given)
16,171 to 172 °C,CCN1CC(OCC2(C)CC2)(C(F)(F)F)c2cc(Cl)ccc2NC1=O (stereo not given)
17,147 to 148 °C,Oc1cccc(Sc2ncccc2O)c1
